Results: patent US9062124B2, “GIP-based mixed agonists for treatment of metabolic disorders and obesity” (priority 2008, dated 2015)
Where a SMILES comes first, the peptide text is derived from it. Bridges are numbered along the chain shown (N, C = ends).

Legend:
Type in all cases: cell-based
[1] = target: T1, GLP-1 receptor (Homo sapiens, UniProt P43220); assay: cAMP synthesis functional assay (firefly luciferase reporter in HEK293 cells), GLP-1 receptor; conditions: Table 1; relative to the native hormone of the indicated receptor
T1 construct: expressed in transfected cells; host or cells: HEK293

[2] = target: T2, GIP receptor (Homo sapiens, UniProt P48546); assay: cAMP synthesis functional assay (firefly luciferase reporter in HEK293 cells), GIP receptor; conditions: Table 1; for GIP Receptor relative activity: relative to the native hormone of the indicated receptor
T2 construct: expressed in transfected cells; host or cells: HEK293
T2 sequence (P48546 22-466): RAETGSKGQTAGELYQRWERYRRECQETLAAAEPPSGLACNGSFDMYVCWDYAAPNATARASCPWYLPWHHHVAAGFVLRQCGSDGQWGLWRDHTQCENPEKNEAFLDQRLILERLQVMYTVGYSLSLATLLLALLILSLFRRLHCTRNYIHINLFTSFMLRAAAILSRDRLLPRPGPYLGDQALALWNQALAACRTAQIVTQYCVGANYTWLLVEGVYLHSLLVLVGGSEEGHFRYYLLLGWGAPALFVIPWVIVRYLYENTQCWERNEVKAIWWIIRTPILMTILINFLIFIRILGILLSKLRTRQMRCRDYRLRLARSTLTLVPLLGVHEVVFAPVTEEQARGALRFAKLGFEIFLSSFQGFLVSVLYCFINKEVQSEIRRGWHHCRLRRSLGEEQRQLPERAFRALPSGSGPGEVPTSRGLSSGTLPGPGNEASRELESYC

[3] = target: T3, glucagon receptor (Homo sapiens, UniProt P47871); assay: cAMP synthesis functional assay (firefly luciferase reporter in HEK293 cells), glucagon receptor; conditions: Table 1; for EC50: Glucagon Receptor EC50, nM; for Glucagon Receptor relative activity: relative to the native hormone of the indicated receptor
T3 construct: expressed in transfected cells; host or cells: HEK293
T3 sequence (P47871 26-477): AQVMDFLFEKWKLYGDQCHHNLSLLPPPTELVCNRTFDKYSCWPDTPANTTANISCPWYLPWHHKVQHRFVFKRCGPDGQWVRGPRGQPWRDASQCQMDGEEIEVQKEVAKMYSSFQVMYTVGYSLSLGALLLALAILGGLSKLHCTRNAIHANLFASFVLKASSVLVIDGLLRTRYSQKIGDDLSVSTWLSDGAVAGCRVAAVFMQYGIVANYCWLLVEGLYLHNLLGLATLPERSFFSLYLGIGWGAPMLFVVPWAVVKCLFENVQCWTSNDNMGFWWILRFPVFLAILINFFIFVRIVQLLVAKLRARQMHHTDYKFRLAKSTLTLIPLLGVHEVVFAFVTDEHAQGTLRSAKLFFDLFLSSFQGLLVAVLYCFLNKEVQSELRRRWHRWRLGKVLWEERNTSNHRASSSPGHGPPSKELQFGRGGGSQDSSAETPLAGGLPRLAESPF

T1 sequence (P43220 24-463, species assumed): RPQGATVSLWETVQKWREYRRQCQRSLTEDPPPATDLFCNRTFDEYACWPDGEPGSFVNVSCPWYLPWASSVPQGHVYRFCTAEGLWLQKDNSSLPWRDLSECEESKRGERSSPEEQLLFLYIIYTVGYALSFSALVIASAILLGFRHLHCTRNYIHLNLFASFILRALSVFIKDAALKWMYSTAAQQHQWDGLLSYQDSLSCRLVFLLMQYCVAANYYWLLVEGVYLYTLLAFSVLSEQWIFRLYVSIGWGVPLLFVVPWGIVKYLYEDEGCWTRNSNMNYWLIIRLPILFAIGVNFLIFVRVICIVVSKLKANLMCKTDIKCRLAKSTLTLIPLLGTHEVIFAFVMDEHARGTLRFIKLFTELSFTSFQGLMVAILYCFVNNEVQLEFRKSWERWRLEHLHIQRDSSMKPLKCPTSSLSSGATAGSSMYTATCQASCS

| SMILES | GLP-1 Receptor relative activity [1] | GIP Receptor relative activity [2] | EC50 [3] | Glucagon Receptor relative activity [3] | EC50 ([2]; GIP Receptor EC50, nM) |
| --- | --- | --- | --- | --- | --- |
| CC[C@H](C)[C@H](NC(=O)[C@H](Cc1ccccc1)NC(=O)[C@H](CCC(=O)O)NC(=O)[C@@H]1CCCCNC(=O)CC[C@H](NC(=O)[C@H](CC(=O)O)NC(=O)[C@H](CC(C)C)NC(=O)[C@H](Cc2ccc(O)cc2)NC(=O)[C@H](CCCCN)NC(=O)[C@H](CO)NC(=O)[C@H](Cc2ccc(O)cc2)NC(=O)[C@H](CC(=O)O)NC(=O)[C@H](CO)NC(=O)[C@@H](NC(=O)[C@H](Cc2ccccc2)NC(=O)[C@@H](NC(=O)CNC(=O)[C@H](CCC(N)=O)NC(=O)[C@H](CO)NC(=O)[C@@H](N)Cc2c[nH]cn2)[C@@H](C)O)[C@@H](C)O)C(=O)N[C@@H]([C@@H](C)CC)C(=O)N[C@@H](Cc2c[nH]cn2)C(=O)N[C@@H](CCC(N)=O)C(=O)N1)C(=O)N[C@@H](C)C(=O)N[C@@H](Cc1c[nH]c2ccccc12)C(=O)N[C@@H](CC(C)C)C(=O)N[C@@H](CCSC)C(=O)N[C@@H](CC(N)=O)C(=O)N[C@H](C(N)=O)[C@@H](C)O [mt-61] | 22.22% | 0.83% | 0.11 nM | 172.73% | – |
| CC[C@H](C)[C@H](NC(=O)[C@H](Cc1ccccc1)NC(=O)[C@H](CCC(=O)O)NC(=O)[C@@H]1CCCCNC(=O)CC[C@H](NC(=O)[C@H](CC(=O)O)NC(=O)[C@H](CC(C)C)NC(=O)[C@H](Cc2ccc(O)cc2)NC(=O)[C@@H](NC(=O)[C@H](CO)NC(=O)[C@H](Cc2ccc(O)cc2)NC(=O)[C@H](CC(=O)O)NC(=O)[C@H](CO)NC(=O)[C@@H](NC(=O)[C@H](Cc2ccccc2)NC(=O)[C@@H](NC(=O)CNC(=O)[C@H](CCC(N)=O)NC(=O)[C@H](CO)NC(=O)[C@@H](N)Cc2c[nH]cn2)[C@@H](C)O)[C@@H](C)O)[C@@H](C)CC)C(=O)N[C@@H]([C@@H](C)CC)C(=O)N[C@@H](Cc2c[nH]cn2)C(=O)N[C@@H](CCC(N)=O)C(=O)N1)C(=O)N[C@@H](C)C(=O)N[C@@H](Cc1c[nH]c2ccccc12)C(=O)N[C@@H](CC(C)C)C(=O)N[C@@H](CCSC)C(=O)N[C@@H](CC(N)=O)C(=O)N[C@H](C(N)=O)[C@@H](C)O [mt-62] (H-HSQGTFTSDYSIYLDEIHQKEFIAWLMNT-NH2; lactam 16-20; N-terminus assumed) | 40.00% | 1.60% | 0.45 nM | 42.22% | – |
| CC[C@H](C)[C@H](NC(=O)[C@H](Cc1ccccc1)NC(=O)[C@H](CCC(=O)O)NC(=O)[C@@H]1CCC(=O)NCCCC[C@H](NC(=O)[C@H](CC(=O)O)NC(=O)[C@H](CC(C)C)NC(=O)[C@H](Cc2ccc(O)cc2)NC(=O)[C@H](CCCCN)NC(=O)[C@H](CO)NC(=O)[C@H](Cc2ccc(O)cc2)NC(=O)[C@H](CC(=O)O)NC(=O)[C@H](CO)NC(=O)[C@@H](NC(=O)[C@H](Cc2ccccc2)NC(=O)[C@@H](NC(=O)CNC(=O)[C@H](CCC(N)=O)NC(=O)[C@H](CO)NC(=O)[C@@H](N)Cc2c[nH]cn2)[C@@H](C)O)[C@@H](C)O)C(=O)N[C@@H]([C@@H](C)CC)C(=O)N[C@@H](Cc2c[nH]cn2)C(=O)N[C@@H](CCC(N)=O)C(=O)N1)C(=O)N[C@@H](C)C(=O)N[C@@H](Cc1c[nH]c2ccccc12)C(=O)N[C@@H](CC(C)C)C(=O)N[C@@H](CCSC)C(=O)N[C@@H](CC(N)=O)C(=O)N[C@H](C(N)=O)[C@@H](C)O [mt-69] (H-HSQGTFTSDYSKYLDKIHQEEFIAWLMNT-NH2; lactam 16-20; N-terminus assumed) | 12.20% | 0.57% | 0.16 nM | 162.50% | 14.6 nM |
| CC[C@H](C)[C@H](NC(=O)[C@H](CO)NC(=O)[C@H](Cc1ccc(O)cc1)NC(=O)[C@H](CC(=O)O)NC(=O)[C@H](CO)NC(=O)[C@@H](NC(=O)[C@H](Cc1ccccc1)NC(=O)[C@@H](NC(=O)CNC(=O)[C@H](CCC(=O)O)NC(=O)[C@H](C)NC(=O)[C@@H](N)Cc1c[nH]cn1)[C@@H](C)O)[C@@H](C)CC)C(=O)N[C@@H](C)C(=O)N[C@@H](CCSC)C(=O)N[C@@H](CC(=O)O)C(=O)N[C@H]1CCC(=O)NCCCC[C@@H](C(=O)N[C@@H](CC(=O)O)C(=O)N[C@@H](Cc2ccccc2)C(=O)N[C@H](C(=O)N[C@@H](CC(N)=O)C(=O)N[C@@H](Cc2c[nH]c3ccccc23)C(=O)N[C@@H](CC(C)C)C(=O)N[C@@H](CC(C)C)C(=O)N[C@@H](C)C(=O)N[C@@H](CCC(N)=O)C(N)=O)C(C)C)NC(=O)[C@H](CCC(N)=O)NC(=O)[C@H](Cc2c[nH]cn2)NC(=O)[C@H]([C@@H](C)CC)NC1=O [mt-95] (H-HAEGTFISDYSIAMDEIHQKDFVNWLLAQ-NH2; lactam 16-20; N-terminus assumed) | 0.08% | 10.54% | – | 0.04% | – |
| CC[C@H](C)[C@H](NC(=O)[C@H](CO)NC(=O)[C@H](Cc1ccc(O)cc1)NC(=O)[C@H](CC(=O)O)NC(=O)[C@H](CO)NC(=O)[C@@H](NC(=O)[C@H](Cc1ccccc1)NC(=O)[C@@H](NC(=O)CNC(=O)[C@H](CCC(=O)O)NC(=O)[C@H](C)NC(=O)[C@@H](N)Cc1ccc(O)cc1)[C@@H](C)O)[C@@H](C)CC)C(=O)N[C@@H](C)C(=O)N[C@@H](CCSC)C(=O)N[C@@H](CC(=O)O)C(=O)N[C@H]1CCC(=O)NCCCC[C@@H](C(=O)N[C@@H](CC(=O)O)C(=O)N[C@@H](Cc2ccccc2)C(=O)N[C@H](C(=O)N[C@@H](CC(N)=O)C(=O)N[C@@H](Cc2c[nH]c3ccccc23)C(=O)N[C@@H](CC(C)C)C(=O)N[C@@H](CC(C)C)C(=O)N[C@@H](C)C(=O)N[C@@H](CCC(N)=O)C(N)=O)C(C)C)NC(=O)[C@H](CCC(N)=O)NC(=O)[C@H](Cc2c[nH]cn2)NC(=O)[C@H]([C@@H](C)CC)NC1=O [mt-96] (H-YAEGTFISDYSIAMDEIHQKDFVNWLLAQ-NH2; lactam 16-20; N-terminus assumed) | 0.04% | 84.48% | – | 0.29% | – |
| CC[C@H](C)[C@H](NC(=O)[C@H](CO)NC(=O)[C@H](Cc1ccc(O)cc1)NC(=O)[C@H](CC(=O)O)NC(=O)[C@H](CO)NC(=O)[C@@H](NC(=O)[C@H](Cc1ccccc1)NC(=O)[C@@H](NC(=O)CNC(=O)[C@H](CCC(=O)O)NC(=O)[C@H](C)NC(=O)[C@@H](N)Cc1c[nH]cn1)[C@@H](C)O)[C@@H](C)O)C(=O)N[C@@H](Cc1ccc(O)cc1)C(=O)N[C@@H](CCSC)C(=O)N[C@@H](CC(=O)O)C(=O)N[C@H]1CCC(=O)NCCCC[C@@H](C(=O)N[C@@H](CC(=O)O)C(=O)N[C@@H](Cc2ccccc2)C(=O)N[C@H](C(=O)N[C@@H](CC(N)=O)C(=O)N[C@@H](Cc2c[nH]c3ccccc23)C(=O)N[C@@H](CC(C)C)C(=O)N[C@@H](CC(C)C)C(=O)N[C@@H](C)C(=O)N[C@@H](CCC(N)=O)C(N)=O)C(C)C)NC(=O)[C@H](CCC(N)=O)NC(=O)[C@H](Cc2c[nH]cn2)NC(=O)[C@H]([C@@H](C)CC)NC1=O [mt-97] (H-HAEGTFTSDYSIYMDEIHQKDFVNWLLAQ-NH2; lactam 16-20; N-terminus assumed) | 1.27% | 2.81% | – | 3.19% | – |
| CC[C@H](C)[C@H](NC(=O)[C@H](CO)NC(=O)[C@H](Cc1ccc(O)cc1)NC(=O)[C@H](CC(=O)O)NC(=O)[C@H](CO)NC(=O)[C@@H](NC(=O)[C@H](Cc1ccccc1)NC(=O)[C@@H](NC(=O)CNC(=O)[C@H](CCC(=O)O)NC(=O)[C@H](C)NC(=O)[C@@H](N)Cc1ccc(O)cc1)[C@@H](C)O)[C@@H](C)O)C(=O)N[C@@H](Cc1ccc(O)cc1)C(=O)N[C@@H](CCSC)C(=O)N[C@@H](CC(=O)O)C(=O)N[C@H]1CCC(=O)NCCCC[C@@H](C(=O)N[C@@H](CC(=O)O)C(=O)N[C@@H](Cc2ccccc2)C(=O)N[C@H](C(=O)N[C@@H](CC(N)=O)C(=O)N[C@@H](Cc2c[nH]c3ccccc23)C(=O)N[C@@H](CC(C)C)C(=O)N[C@@H](CC(C)C)C(=O)N[C@@H](C)C(=O)N[C@@H](CCC(N)=O)C(N)=O)C(C)C)NC(=O)[C@H](CCC(N)=O)NC(=O)[C@H](Cc2c[nH]cn2)NC(=O)[C@H]([C@@H](C)CC)NC1=O [mt-98] (H-YAEGTFTSDYSIYMDEIHQKDFVNWLLAQ-NH2; lactam 16-20; N-terminus assumed) | 1.42% | 25.00% | – | 0.01% | – |
